Measurements from ChEMBL document CHEMBL1201862, “PubChem BioAssay data set” (2004).
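Grown in 96-well plates, cells were treated for 48 hours with each compound at five concentrations. Insufficient inhibition: endpoint recorded as highest concentration tested. GI50 marks 50% less growth.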 Calls of active or inactive are those of the source. Rule as the data show it: active = GI50 up to about 1.1 µM and inactive = higher.

Key:
Test in all cases: inhibition of tumour cell growth, NCI panel, 48 h
[1] = test system: A549
[2] = test system: DU-145
[3] = test system: HCT-116
[4] = test system: HL-60
[5] = test system: HOP-92
[6] = test system: HT-29
[7] = test system: LOX IMVI
[8] = test system: MDA-MB-231
[9] = test system: MDA-MB-435
[10] = test system: MDA-N
[11] = test system: NCI-H460
[12] = test system: NCI-H522
[13] = test system: OVCAR-4
[14] = test system: RPMI-8226
[15] = test system: SNB-75
[16] = test system: SR
[17] = test system: U-251
[18] = test system: UACC-257
[19] = test system: UACC-62
[20] = test system: UO-31

Row | SMILES | GI50 [1] | GI50 [2] | GI50 [3] | GI50 [4] | GI50 [5] | GI50 [6] | GI50 [7] | GI50 [8] | GI50 [9] | GI50 [10] | GI50 [11] | GI50 [12] | GI50 [13] | GI50 [14] | GI50 [15] | GI50 [16] | GI50 [17] | GI50 [18] | GI50 [19] | GI50 [20]
1 | CCCN1C(=O)CN(S(=O)(=O)c2ccc(Cl)cc2)C1=O | > 100 µM (inactive) | > 100 µM (inactive) | > 100 µM (inactive) | > 100 µM (inactive) | > 100 µM (inactive) | > 100 µM (inactive) | > 100 µM (inactive) | > 100 µM (inactive) | > 100 µM (inactive) | > 100 µM (inactive) | > 100 µM (inactive) | > 100 µM (inactive) | > 100 µM (inactive) | > 100 µM (inactive) | > 100 µM (inactive) | 71 µM (inactive) | > 100 µM (inactive) | > 100 µM (inactive) | > 100 µM (inactive) | > 100 µM (inactive)
2 | COC(=O)c1oc([N+](=O)[O-])c(Cl)c1Cl | 8.51 µM (inactive) | 17.6 µM (inactive) | 6.24 µM (inactive) | 1.34 µM (inactive) | 20 µM (inactive) | 16.5 µM (inactive) | 6.05 µM (inactive) | 7.35 µM (inactive) | 7.8 µM (inactive) | 7.98 µM (inactive) | 17.2 µM (inactive) | 1.7 µM (inactive) | 9.31 µM (inactive) | 3.96 µM (inactive) | 7.78 µM (inactive) | 2.08 µM (inactive) | 8.11 µM (inactive) | 7.89 µM (inactive) | 8.47 µM (inactive) | 8.07 µM (inactive)
3 | Cn1c(N/N=C/c2ccc(Cl)cc2)nc(-c2ccc(Cl)cc2)c(C#N)c1=O | 17.8 µM (inactive) | 22.5 µM (inactive) | 13.5 µM (inactive) | 44.7 µM (inactive) | 22.3 µM (inactive) | 41.1 µM (inactive) | 25.2 µM (inactive) | 22.4 µM (inactive) | 29.9 µM (inactive) | 53.2 µM (inactive) | 27 µM (inactive) | 10.9 µM (inactive) | 23.8 µM (inactive) | 33.3 µM (inactive) | 25.3 µM (inactive) | 2.26 µM (inactive) | 29.9 µM (inactive) | 72.3 µM (inactive) | 22 µM (inactive) | 16 µM (inactive)
4 | N=C(N)NS(=O)(=O)c1ccc(NC(=O)c2cccc3c(NNc4ccc(C(=O)O)cc4)c4ccccc4nc23)cc1 | > 100 µM (inactive) | 48.5 µM (inactive) | 59 µM (inactive) | 32.6 µM (inactive) | 24.2 µM (inactive) | 41.4 µM (inactive) | 48.4 µM (inactive) | 61 µM (inactive) | 95.7 µM (inactive) | > 100 µM (inactive) | 67.3 µM (inactive) | 51.1 µM (inactive) | > 100 µM (inactive) | > 100 µM (inactive) | > 100 µM (inactive) | 33.5 µM (inactive) | 34.6 µM (inactive) | > 100 µM (inactive) | 70.1 µM (inactive) | 32.7 µM (inactive)
5 | Nn1c(-c2ccccc2)n[nH]c1=O | > 100 µM (inactive) | > 100 µM (inactive) | > 100 µM (inactive) | > 100 µM (inactive) | > 100 µM (inactive) | > 100 µM (inactive) | > 100 µM (inactive) | > 100 µM (inactive) | > 100 µM (inactive) | > 100 µM (inactive) | > 100 µM (inactive) | > 100 µM (inactive) | > 100 µM (inactive) | > 100 µM (inactive) | > 100 µM (inactive) | > 100 µM (inactive) | > 100 µM (inactive) | > 100 µM (inactive) | > 100 µM (inactive) | > 100 µM (inactive)
6 | O=S1(=O)CCN(Cc2ccccc2)/C1=N\S(=O)(=O)c1ccc(Cl)cc1 | 65.3 µM (inactive) | 20.5 µM (inactive) | 18.5 µM (inactive) | 22.8 µM (inactive) | 18.6 µM (inactive) | 17.9 µM (inactive) | 18.1 µM (inactive) | > 100 µM (inactive) | 19.1 µM (inactive) | 18.2 µM (inactive) | 22.3 µM (inactive) | 14.5 µM (inactive) | 18.8 µM (inactive) | 25.8 µM (inactive) | 21.2 µM (inactive) | 24.2 µM (inactive) | 18 µM (inactive) | 20.7 µM (inactive) | 17.8 µM (inactive) | 17.5 µM (inactive)
7 | [N-]=[N+]=Nc1c([N+](=O)[O-])c(=O)n2c3c(cccc13)CCC2 | 35.9 µM (inactive) | 16.9 µM (inactive) | 15.6 µM (inactive) | 2.2 µM (inactive) | 14 µM (inactive) | 15 µM (inactive) | 14.4 µM (inactive) | 10.6 µM (inactive) | 17.3 µM (inactive) | 14.4 µM (inactive) | 17.8 µM (inactive) | 2.08 µM (inactive) | 13.7 µM (inactive) | 3.15 µM (inactive) | 19.4 µM (inactive) | 2.27 µM (inactive) | 17.5 µM (inactive) | 8.15 µM (inactive) | 14 µM (inactive) | 15.2 µM (inactive)
8 | O=c1c2cc(I)ccc2nc(SCc2n[nH]c(=S)o2)n1Cc1ccccc1 | 20.4 µM (inactive) | 16.3 µM (inactive) | 16 µM (inactive) | 4.71 µM (inactive) | 14.3 µM (inactive) | 22.3 µM (inactive) | 15.7 µM (inactive) | 17.3 µM (inactive) | 19.3 µM (inactive) | 17.3 µM (inactive) | 19.1 µM (inactive) | 14.2 µM (inactive) | 18.1 µM (inactive) | 16.3 µM (inactive) | 4.78 µM (inactive) | 20.5 µM (inactive) | 17.6 µM (inactive) | 18.1 µM (inactive) | 12.5 µM (inactive) | 0.741 µM (active)
9 | O=C(NCCCCCCNC(=O)n1cc(F)c(=O)[nH]c1=O)NCCCOCCOCCOCCOCCOCCOCCOCCOCCOCCOCCOCCOCCOCCOCCOCCOCCOCCOCCOCCOCCOCCCNC(=O)C(O)C(O)C(OC1OC(CO)C(O)C(O)C1O)C(O)CO (stereo not given) | 7.33 µM (inactive) | 27.7 µM (inactive) | 9.16 µM (inactive) | 43.7 µM (inactive) | > 100 µM (inactive) | 11 µM (inactive) | 18.9 µM (inactive) | > 71.4 µM (inactive) | 19.3 µM (inactive) | 10 µM (inactive) | 3.58 µM (inactive) | 87.9 µM (inactive) | 29.6 µM (inactive) | 17 µM (inactive) | 16.4 µM (inactive) | 16 µM (inactive) | > 89.7 µM (inactive) | 59.4 µM (inactive) | 27.9 µM (inactive) | 13.4 µM (inactive)
10 | C=CCOC(=O)NC1C(OC(C)[C@@H](NC(=O)OCc2ccccc2)C(=O)OC(C)(C)C)OC(COC(C)=O)C(OC(C)=O)C1OC(C)=O (stereo not given in full) | > 100 µM (inactive) | > 100 µM (inactive) | > 100 µM (inactive) | 69.5 µM (inactive) | > 100 µM (inactive) | > 100 µM (inactive) | 86.7 µM (inactive) | 15.1 µM (inactive) | 39.4 µM (inactive) | > 100 µM (inactive) | > 100 µM (inactive) | 63.8 µM (inactive) | > 100 µM (inactive) | 62.4 µM (inactive) | 2.85 µM (inactive) | 79.8 µM (inactive) | > 100 µM (inactive) | > 100 µM (inactive) | > 100 µM (inactive) | 17.2 µM (inactive)
11 | O=C(Nn1c(-c2ccccc2)nc2ccccc2c1=O)c1ccc(Cl)cc1 | 67.9 µM (inactive) | > 100 µM (inactive) | > 100 µM (inactive) | > 100 µM (inactive) | 75.3 µM (inactive) | > 100 µM (inactive) | > 100 µM (inactive) | > 100 µM (inactive) | 91.2 µM (inactive) | > 100 µM (inactive) | 59.6 µM (inactive) | 50.6 µM (inactive) | 56.5 µM (inactive) | 76 µM (inactive) | 27.1 µM (inactive) | 85.5 µM (inactive) | 84.3 µM (inactive) | > 100 µM (inactive) | 48.3 µM (inactive) | 65.6 µM (inactive)
12 | O=C(/C=C/C=C/c1ccccc1)c1ccccc1 | 18.1 µM (inactive) | 17.3 µM (inactive) | 17.6 µM (inactive) | 3.6 µM (inactive) | 18.4 µM (inactive) | 16.2 µM (inactive) | 15.8 µM (inactive) | 21.5 µM (inactive) | 17.7 µM (inactive) | 16.2 µM (inactive) | 21.3 µM (inactive) | 4.66 µM (inactive) | 17.7 µM (inactive) | 16.1 µM (inactive) | 17.8 µM (inactive) | 11.2 µM (inactive) | 14 µM (inactive) | 16.9 µM (inactive) | 17.4 µM (inactive) | 18.3 µM (inactive)
13 | COc1ccc2c(=O)cc(-c3ccc(OC)c(OC)c3OC)oc2c1 | 4.81 µM (inactive) | > 100 µM (inactive) | > 100 µM (inactive) | 30.1 µM (inactive) | 33.1 µM (inactive) | 98.9 µM (inactive) | > 75.7 µM (inactive) | 38.7 µM (inactive) | > 100 µM (inactive) | 95.3 µM (inactive) | 99.3 µM (inactive) | > 39.8 µM (inactive) | > 93.3 µM (inactive) | 16.9 µM (inactive) | 23.4 µM (inactive) | 74.8 µM (inactive) | > 100 µM (inactive) | > 100 µM (inactive) | 48.8 µM (inactive) | > 100 µM (inactive)
14 | O=C(O)CN1CCN(CC(=O)O)CCN(CC(=O)O)CCN(CC(=O)O)CC1 [TETRAXETAN] | > 100 µM (inactive) | > 100 µM (inactive) | > 100 µM (inactive) | > 100 µM (inactive) | > 100 µM (inactive) | > 100 µM (inactive) | > 100 µM (inactive) | > 100 µM (inactive) | > 100 µM (inactive) | > 100 µM (inactive) | > 100 µM (inactive) | > 100 µM (inactive) | > 100 µM (inactive) | > 100 µM (inactive) | > 100 µM (inactive) | > 100 µM (inactive) | > 100 µM (inactive) | > 100 µM (inactive) | > 100 µM (inactive) | > 100 µM (inactive)
